In patent EP4268810A1 (priority 2022, dated 2023):
Where two headings read alike, the source gives them in different places.

How the values were obtained:
icSARS-CoV-2-mNG [1] = tested on: icSARS-CoV-2-mNG
icSARS-CoV-2-mNG [2] = settings: for Therapeutic range: CC50/IC50, CTG / Therapeutic range: CC50/IC50, IncuCyte / Therapeutic range: CC50/IC50, MTT: human, calu-3 cells
[3] = tested on: DENV type 2 reporter virus
Calu-3 cells [4] = settings: read-out: CC50 IncuCyte, 72h, cell confluency, 4320 min
Experimental: (§1) Calu-3 (40.000/well), Huh7.5 (10.000/well) and CaCo2 (10.000/well) cells were seeded in 96-well plates in DMEM-Media. The cells were treated with the drug compounds at the indicated concentrations, negative control (non-treated), DMSO control and positive control (50% DMSO treated) were added, and plates were then stored in the IncuCyte® at 37 °C, 5 % CO2 for 72h measuring every 3 hours cell confluency via phase channel with 10x objective. For Analysis IncuCyte® S3 Software was used.
(§2) Plates were then stored in the IncuCyte® measuring every 3 hours cell confluency.

in vitro [5] = settings: human, calu-3 cells, CC50 IncuCyte
Experimental: as §1, §2

in vitro [6] = settings: human, caco-2
Experimental: as §1, §2

icSARS-CoV-2-mNG [7] = experiment: microbe, parasite or virus in culture; settings: Severe acute respiratory syndrome coronavirus 2, Calu-3
[8] = tested on: DENV type 2 reporter virus; experiment: microbe, parasite or virus in culture; settings: Dengue virus
Huh7.5 cells [9] = experiment: Cell viability via live cell imaging (IncuCyte); settings: read-out: CC50 IncuCyte, 72h, cell confluency
Experimental: as §1, §2

Calu-3 cells [10] = settings: read-out: CC50 MTT, 72h
Huh7.5 cells [11] = settings: read-out: CC50 MTT, 72h, 4320 min
in vitro [12] = settings: human, huh7.5 cells, CC50 MTT

Compound | SARS-CoV-2 infection (infection rate, mNG+/Hoechst+ cells) (icSARS-CoV-2-mNG [1]) | Therapeutic range: CC50/IC50, CTG (icSARS-CoV-2-mNG [2]) | Therapeutic range: CC50/IC50, IncuCyte (icSARS-CoV-2-mNG [2]) | Therapeutic range: CC50/IC50, MTT (icSARS-CoV-2-mNG [2]) | IC50 (icSARS-CoV-2-mNG [7]) [nM] | IC50 ([8]; Huh7.5, 24 h) [µM] | toxicity (staining of the nuclei, cell count) (icSARS-CoV-2-mNG [2]) | other results
COc1[nH]c(=O)c(C(=O)C(C)CC(C)C(Cl)CCl)c(O)c1OC (centres unmarked) [Atpenin A5] | inhibited SARS-CoV-2 infection of the cell lines in a dose-dependent manner | CTG: 1.72 | IncuCyte: > 320 | MTT: 24 | 500 | 0.27 |  | Therapeutic range: CC50/IC50, CTG ([3]; Dengue Virus in Huh7.5 cells, CC50 by CTG): CTG: 229.5; Therapeutic range: CC50/IC50, IncuCyte ([3]; Dengue Virus in Huh7.5 cells, CC50 by IncuCyte): IncuCyte: 240.7; Therapeutic range: CC50/IC50, MTT ([3]; Dengue Virus in Huh7.5 cells, CC50 by MTT): MTT: 375.2; CC50 (Calu-3 cells [4]): > 80 µM; CC50 at 72 h (in vitro [5]; 72h, cell confluency): > 0.16 mM; CC50 at 72 h (in vitro [6]): > 60 µM; CC50 (Huh7.5 cells [9]): 65 µM
CN(C)C(=N)N=C(N)N [Metformin] |  |  |  |  | 459000 |  | without any cytotoxicity | 
[H]/N=C(/N)N/C(=N/[H])NCCc1ccccc1 [Phenformin, phenformin] | inhibited SARS-CoV-2 infection of the cell lines in a dose-dependent manner | CTG: 1306.4 | IncuCyte: 867.1 | MTT: 876.3 | 1730 | 18.6 | without any toxicity | Therapeutic range: CC50/IC50, CTG ([3]; human, huh7.5 cells): CTG: 109.2; Therapeutic range: CC50/IC50, IncuCyte ([3]; human, huh7.5 cells): IncuCyte: 59.9; Therapeutic range: CC50/IC50, MTT ([3]; human, huh7.5 cells): MTT: 3.3; CC50 (Calu-3 cells [10]): 1.52 mM; CC50 (Huh7.5 cells [11]): 61.2 µM; CC50 at 72 h (in vitro [12]): 61 µM; CC50 at 72 h (in vitro [5]): 1.5 mM; IC50 ([8]; Huh7.5): 18.6 µM
CC(C)Cc1nn(C)c(=O)c2c(SCCCO)n(Cc3cccc4ccccc34)cc12 [SR13800] |  |  |  |  |  |  |  | toxicity (cell viability by Hoechst staining of the nucleus) (icSARS-CoV-2-mNG [1]): toxic
O[C@H]1[C@H](O)[C@@H](O)[C@H](O)[C@@H](O)[C@@H]1O [Scyllo-Inositol] | did not show any activity |  |  |  |  |  |  | 
